Reference: US7906488B2, “Sphingolipids in treatment and prevention of steatosis and of steatosis or of hepatotoxicity and its sequelae” (Nederlandse Organisatie Voor …, priority 2004, dated 2011)

Key:
[1] = system: galactosamine-injured primary rat hepatocytes; settings: cited from earlier work
[2] = system: C57bI mice; settings: intraperitoneal injection; cited from earlier work
[3] = system: APOE*3Leiden mice; test: Effect of dietary sphingolipids on plasma C and TG levels (0.1, 0.2, 0.4% in diet); type: in vivo; settings: 0.4% sphingolipid in diet, compared with 0.2%
Excerpt: Sphingolipids: The three sphingolipids that represent the most abundant natural complex sphingolipid classes and the three of the simplest natural sphingolipids, the sphingoid bases that can be formed by enzymatic breakdown of complex sphingolipids in the intestine were used. Sphingomyelin (mainly N-palmitoyl-sphingosine-1-phosphocholine) from egg was obtained from Larodan Fine Chemicals (Stockholm, Sweden). Yeast-derived (semi)synthetic ceramide III (N-stearoyl-phytosphingosine), cerebroside (N-stearoyl-phytosphingosine-1-glucose) and phytosphingosine (PS) were from Cosmoferm BV (Delft, the Netherlands). Sphinganine and sphingosine were from Avanti Polar Lipids (Albaster, Ala.). Animals and diets: Heterozygous female APOE*3Leiden transgenic mice (Van Vlijmen et al. 1994. J. Clin. Invest 93:1403-1410.) (6 months old) were fed a Western-type diet (Hope Farms, Woerden, the Netherlands) containing 15% cocoa butter, 0.25% cholesterol, 1% corn oil, 40.5% sucrose, 20% acid casein, 10% corn starch and 5.95% cellulose (all w/w) for 5 weeks. The mice were allowed free access to food and water. Body weight and food intake were monitored weekly. In the first experiment (FIG. 2), the mice were randomized after these 5 weeks into 7 groups (n=6), based on plasma cholesterol, triglycerides, and body weight. Subsequently, the mice were fed for three weeks the same diet without or with 0.1% (w/w) phytosphingosine (PS), sphingosine, sphinganine, cerebroside, ceramide III, or sphingomyelin. […]
Plasma parameters: Tail blood samples were collected in EDTA-coated cups, or in paraoxon-coated capillaries to prevent lipolysis as described in Zambon et al. 1993 (Zambon et al. 1993. J. Lipid Res. 34:1021-1028). Plasma lipid parameters were determined using commercial kits for total cholesterol (C) Chol R1 from Roche Diagnostics, Mannheim, Germany), non-esterified free fatty acids (FFA) (NEFA-C; Wako chemicals, Neuss, Germany), Total triglycerides (TG) (Triglyceride GPO-Trinder; Sigma, St. Louis, Mo.), β-hydroxybutyrate (β-HB; Sigma) and ALAT (Reflotron GPT; Roche). Serum amyloid A (SAA) was measured by ELISA (Biosource, Nivelles, Belgium) and fibrinogen by sandwich ELISA, as described in Koopman et al., 2005 (Koopman et al. 2005. Fibrinol Proteol 11:19). […] Hepatic VLDL-TG production: The rate of hepatic VLDL-TG production, de novo apoB secretion, and VLDL composition were determined in overnight-fasted mice. […] After 30 min, the animals received a Triton WR1339 injection (Tyloxapol, Sigma; 500 mg/kg body weight in 100 μl saline) to prevent systemic lipolysis of newly-secreted hepatic VLDL-TG (Aalto-Setala et al. 1992. J. Clin. Invest 90:1889-1900.27) Blood samples were drawn at 0, 15, 30, 60, and 90 min after Triton WR1339 injection and plasma TG concentrations were determined. […]

[4] = system: rats; settings: administration to the food of rats; cited from earlier work

Row | Molecule | Plasma C [3] | other results
1 | CCCCCCCCC/C=C\CC/C=C/[C@@H](O)[C@H](CO[C@@H]1O[C@H](CO)[C@@H](O)[C@H](O)[C@H]1O)NC(=O)CCCCCCCCCCCCCCC [LCC, 1-O-(β-D-glucopyranosyl)-(2S,3R,4E,8Z)-2-N-palmityloctadecasphinga-4,8-diene] |  | Release into the culture medium of GPT and SDH [1]: reduce the release
2 | glucocerebroside |  | Liver fat content [2]: reduced
3 | CCCCCCCCCCCCC/C=C/[C@@H](O)[C@@H](N)CO [sphingosine] | decreased even more | 
4 | CCCCCCCCCCCCC/C=C/[C@@H](O)[C@H](COP(=O)([O-])OCC[N+](C)(C)C)NC(=O)CCCCCCCCCCCCCCC [sphingomyelin, N-palmitoyl-sphingosine-1-phosphocholine] | decreased even more | Chances of occurrence of malignant, chemically induced colon cancer [4]: significantly decrease
5 | CCCCCCCCCCCCCCCCCC(=O)N[C@@H](CO)[C@H](O)[C@H](O)CCCCCCCCCCCCCC [ceramide III, N-stearoyl-phytosphingosine] | decreased even more | 
